Experiment [1] addresses T1, Serine/threonine-protein kinase Sgk3 (Homo sapiens) (UniProt Q96BR1).
T1 sequence (whole entry): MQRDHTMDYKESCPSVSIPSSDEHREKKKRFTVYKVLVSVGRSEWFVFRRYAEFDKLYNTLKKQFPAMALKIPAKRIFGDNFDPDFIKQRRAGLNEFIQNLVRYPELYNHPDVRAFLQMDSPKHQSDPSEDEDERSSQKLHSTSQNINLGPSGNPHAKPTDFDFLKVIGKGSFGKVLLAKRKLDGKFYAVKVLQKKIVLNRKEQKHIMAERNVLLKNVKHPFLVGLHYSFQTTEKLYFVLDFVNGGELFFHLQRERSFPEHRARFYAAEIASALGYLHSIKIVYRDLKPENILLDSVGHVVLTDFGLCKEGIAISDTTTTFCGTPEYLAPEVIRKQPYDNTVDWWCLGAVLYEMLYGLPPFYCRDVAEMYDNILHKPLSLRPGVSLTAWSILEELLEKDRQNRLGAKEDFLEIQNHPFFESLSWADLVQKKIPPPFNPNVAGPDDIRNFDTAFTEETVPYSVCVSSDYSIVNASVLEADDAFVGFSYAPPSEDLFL
The experiment can be described thus: Inhibition of human full length SGK3 expressed in baculovirus assessed as substrate phosphorylation using fluorescence-labelled peptides as substrate at 0.2 uM after 90 mins by microfluidic peptide phosphorylation assay.

Experiment [2] has as its target T2, Calcium/calmodulin-dependent protein kinase type IV (Homo sapiens) (UniProt Q16566).
T2 sequence (whole entry): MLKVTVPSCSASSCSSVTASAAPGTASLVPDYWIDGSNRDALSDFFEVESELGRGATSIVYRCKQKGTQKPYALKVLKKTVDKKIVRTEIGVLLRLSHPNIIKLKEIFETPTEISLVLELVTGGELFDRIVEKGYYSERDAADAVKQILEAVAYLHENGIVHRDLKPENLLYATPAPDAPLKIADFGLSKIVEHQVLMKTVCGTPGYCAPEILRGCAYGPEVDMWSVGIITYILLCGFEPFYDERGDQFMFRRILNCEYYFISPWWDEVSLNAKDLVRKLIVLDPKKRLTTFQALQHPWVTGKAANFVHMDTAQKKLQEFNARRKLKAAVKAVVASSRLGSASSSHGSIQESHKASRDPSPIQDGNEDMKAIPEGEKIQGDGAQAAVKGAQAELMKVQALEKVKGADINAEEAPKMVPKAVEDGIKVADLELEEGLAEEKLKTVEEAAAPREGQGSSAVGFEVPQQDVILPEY
The experiment can be described thus: Inhibition of human full length CAMK4 expressed in baculovirus assessed as substrate phosphorylation using fluorescence-labelled peptides as substrate at 95 uM after 90 mins by microfluidic peptide phosphorylation assay.

The target of experiment [3] is RAF proto-oncogene serine/threonine-protein kinase (Homo sapiens) (UniProt P04049). The experiment can be described thus: Inhibition of human truncated c-Raf expressed in baculovirus assessed as substrate phosphorylation using fluorescence-labelled peptides as substrate at 8 uM after 90 mins by microfluidic peptide phosphorylation assay.
The target in experiment [4] is Tyrosine-protein kinase Lyn (Homo sapiens) (UniProt P07948). The experiment can be described thus: Inhibition of human full length LYN expressed in baculovirus assessed as substrate phosphorylation using fluorescence-labelled peptides as substrate at 8 uM after 90 mins by microfluidic peptide phosphorylation assay.
The target of experiment [5] is T3, Serine/threonine-protein kinase D1 (Homo sapiens) (UniProt Q15139).
T3 sequence (whole entry): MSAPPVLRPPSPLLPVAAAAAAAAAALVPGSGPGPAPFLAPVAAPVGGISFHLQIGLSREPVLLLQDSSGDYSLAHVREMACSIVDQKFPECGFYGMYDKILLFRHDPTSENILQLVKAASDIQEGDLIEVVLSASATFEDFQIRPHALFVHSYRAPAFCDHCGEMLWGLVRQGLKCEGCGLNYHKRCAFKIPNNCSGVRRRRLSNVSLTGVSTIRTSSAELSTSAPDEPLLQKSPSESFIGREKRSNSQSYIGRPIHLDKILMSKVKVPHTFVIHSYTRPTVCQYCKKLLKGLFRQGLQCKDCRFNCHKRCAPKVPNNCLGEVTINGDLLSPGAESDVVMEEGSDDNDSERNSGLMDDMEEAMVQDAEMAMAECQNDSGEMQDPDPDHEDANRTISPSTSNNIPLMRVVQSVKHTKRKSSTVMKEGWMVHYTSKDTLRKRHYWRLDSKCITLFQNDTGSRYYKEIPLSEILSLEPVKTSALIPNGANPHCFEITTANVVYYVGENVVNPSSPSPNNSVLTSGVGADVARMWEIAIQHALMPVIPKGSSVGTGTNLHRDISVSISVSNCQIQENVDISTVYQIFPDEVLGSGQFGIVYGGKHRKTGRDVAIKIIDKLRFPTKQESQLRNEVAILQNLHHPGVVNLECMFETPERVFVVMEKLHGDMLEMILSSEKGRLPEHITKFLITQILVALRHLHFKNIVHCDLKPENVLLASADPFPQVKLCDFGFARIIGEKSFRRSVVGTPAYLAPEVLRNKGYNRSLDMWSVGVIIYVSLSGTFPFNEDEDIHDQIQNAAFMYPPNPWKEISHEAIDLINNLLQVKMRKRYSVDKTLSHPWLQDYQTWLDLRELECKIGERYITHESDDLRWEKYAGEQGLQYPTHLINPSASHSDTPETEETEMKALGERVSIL
The experiment can be described thus: Inhibition of human full length PKD1 expressed in baculovirus assessed as substrate phosphorylation using fluorescence-labelled peptides as substrate at 1000 uM after 90 mins by microfluidic peptide phosphorylation assay.

The target of experiment [6] is T4, Serine/threonine-protein kinase Sgk2 (Homo sapiens) (UniProt Q9HBY8).
T4 sequence (whole entry): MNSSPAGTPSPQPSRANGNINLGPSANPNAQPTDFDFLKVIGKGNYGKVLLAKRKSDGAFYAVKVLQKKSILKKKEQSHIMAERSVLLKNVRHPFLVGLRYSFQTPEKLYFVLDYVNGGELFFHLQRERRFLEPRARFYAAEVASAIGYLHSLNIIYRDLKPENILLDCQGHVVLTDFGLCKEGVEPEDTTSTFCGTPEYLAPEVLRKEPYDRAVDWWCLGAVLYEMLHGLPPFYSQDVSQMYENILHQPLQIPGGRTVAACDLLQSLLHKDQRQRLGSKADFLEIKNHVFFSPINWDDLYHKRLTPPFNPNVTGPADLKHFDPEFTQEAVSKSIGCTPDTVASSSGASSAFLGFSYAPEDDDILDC
The experiment can be described thus: Inhibition of human full length SGK2 expressed in baculovirus assessed as substrate phosphorylation using fluorescence-labelled peptides as substrate at 0.06 uM after 90 mins by microfluidic peptide phosphorylation assay.

The target in experiment [7] is RAC-alpha serine/threonine-protein kinase (Homo sapiens) (UniProt P31749). The experiment can be described thus: Inhibition of human AKT1 catalytic domain expressed in baculovirus assessed as substrate phosphorylation using fluorescence-labelled peptides as substrate at 2 uM after 90 mins by microfluidic peptide phosphorylation assay.
For experiment [8], the target named is Tyrosine-protein kinase Lyn (Homo sapiens) (UniProt P07948). The experiment can be described thus: Inhibition of human full length LYN expressed in baculovirus assessed as substrate phosphorylation using fluorescence-labelled peptides as substrate at 70 uM after 90 mins by microfluidic peptide phosphorylation assay.

Chain of Tyrosine-protein kinase Lyn (Homo sapiens) (P07948 2-512 limits assumed): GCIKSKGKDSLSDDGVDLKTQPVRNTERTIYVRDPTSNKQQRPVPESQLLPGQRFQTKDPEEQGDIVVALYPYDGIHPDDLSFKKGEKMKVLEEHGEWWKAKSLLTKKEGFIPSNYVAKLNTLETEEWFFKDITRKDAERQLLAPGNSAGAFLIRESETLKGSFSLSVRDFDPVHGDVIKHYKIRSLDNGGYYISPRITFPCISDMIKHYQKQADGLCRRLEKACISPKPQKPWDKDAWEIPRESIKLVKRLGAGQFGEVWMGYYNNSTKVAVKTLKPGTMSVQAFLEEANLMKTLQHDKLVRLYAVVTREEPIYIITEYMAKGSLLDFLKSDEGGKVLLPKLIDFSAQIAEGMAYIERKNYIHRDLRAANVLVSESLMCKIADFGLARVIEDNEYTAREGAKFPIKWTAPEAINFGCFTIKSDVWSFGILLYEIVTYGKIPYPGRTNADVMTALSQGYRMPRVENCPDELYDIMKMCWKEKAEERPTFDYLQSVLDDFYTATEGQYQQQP
Chain of RAF proto-oncogene serine/threonine-protein kinase (Homo sapiens) (P04049 whole entry, the tested form may be a part): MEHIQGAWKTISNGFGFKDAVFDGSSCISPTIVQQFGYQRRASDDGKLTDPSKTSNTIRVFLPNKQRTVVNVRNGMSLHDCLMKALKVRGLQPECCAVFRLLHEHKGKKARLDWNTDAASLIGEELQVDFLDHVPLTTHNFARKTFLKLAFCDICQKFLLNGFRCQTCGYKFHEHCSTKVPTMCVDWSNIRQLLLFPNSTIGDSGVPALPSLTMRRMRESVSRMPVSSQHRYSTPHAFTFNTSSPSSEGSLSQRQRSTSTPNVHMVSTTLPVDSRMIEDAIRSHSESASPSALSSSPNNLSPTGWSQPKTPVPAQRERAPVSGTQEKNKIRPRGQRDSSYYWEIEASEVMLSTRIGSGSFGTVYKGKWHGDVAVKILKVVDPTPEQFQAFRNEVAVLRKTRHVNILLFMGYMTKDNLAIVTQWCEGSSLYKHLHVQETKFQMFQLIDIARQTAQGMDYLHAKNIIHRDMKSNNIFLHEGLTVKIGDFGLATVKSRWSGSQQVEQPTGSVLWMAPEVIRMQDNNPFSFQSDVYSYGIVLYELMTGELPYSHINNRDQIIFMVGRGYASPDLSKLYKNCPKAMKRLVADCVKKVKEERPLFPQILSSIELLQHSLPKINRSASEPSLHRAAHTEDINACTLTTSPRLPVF
Chain of RAC-alpha serine/threonine-protein kinase (Homo sapiens) (P31749 whole entry, the tested form may be a part): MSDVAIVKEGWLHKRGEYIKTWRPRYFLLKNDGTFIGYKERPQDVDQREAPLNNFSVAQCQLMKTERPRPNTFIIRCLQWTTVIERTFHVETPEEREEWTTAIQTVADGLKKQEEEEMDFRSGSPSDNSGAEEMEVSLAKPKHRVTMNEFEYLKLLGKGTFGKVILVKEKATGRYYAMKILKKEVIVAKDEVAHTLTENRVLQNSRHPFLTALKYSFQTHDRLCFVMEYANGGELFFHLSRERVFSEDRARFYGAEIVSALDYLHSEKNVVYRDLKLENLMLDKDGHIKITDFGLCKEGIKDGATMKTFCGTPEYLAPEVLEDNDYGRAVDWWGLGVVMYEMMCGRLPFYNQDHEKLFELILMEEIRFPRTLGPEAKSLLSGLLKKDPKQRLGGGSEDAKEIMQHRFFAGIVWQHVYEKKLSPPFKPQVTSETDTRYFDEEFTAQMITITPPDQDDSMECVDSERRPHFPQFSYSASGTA

For orientation: inhibition means the share of the control response that was lost under treatment. Take `Clc1ccc(C2(c3ccc(-c4ncnc5[nH]cnc45)cc3)CCNCC2)cc1`: the inhibition in experiment [1] came out at 41%.
With `NCCc1ccc(-c2ncnc3[nH]cnc23)cc1`, the inhibition in experiment [2] worked out at 85%.
Take `NCC1CCN(c2ncnc3[nH]ccc23)CC1`: the values for the inhibition in experiment [3] and in experiment [4] were 2.5% and 51%, respectively.
For `c1cnc2[nH]ccc2c1`, the inhibition in experiment [5] is 54%.
On to `NC1(Cc2ccc(Cl)cc2)CCN(c2ncnc3[nH]ccc23)CC1`, for which the inhibition in experiment [6] was found to be 9%.
Regarding `NC1CCN(c2ncnc3[nH]ccc23)CC1`, in experiment [7], the inhibition was 83%.
On to `CNCc1ccc(-c2ncnc3[nH]cnc23)cc1`, for which, in experiment [8], the inhibition came to 35%.

These data come from ChEMBL document CHEMBL3132769, “Fragment growing to retain or alter the selectivity of anchored kinase hinge-binding fragments” (Medchemcomm, 2014).
